Assay: Viscosity of crude blended with dimethyl sulfide (rheometer)
Type: physicochemical
Protocol: The quality of dimethyl sulfide as an oil recovery agent based on the crude oil viscosity lowering properties of dimethyl sulfide was evalulated. Three crude oils having widely disparate viscosity characteristics—an African Waxy crude, a Middle Eastern asphaltic crude, and a Canadian asphaltenic crude—were blended with dimethyl sulfide. A control sample of each crude was prepared containing no dimethyl sulfide, and samples of each crude were prepared and blended with dimethyl sulfide to prepare crude samples containing increasing concentrations of dimethyl sulfide. Each sample of each of the crudes was heated to 60° C. to dissolve any waxes therein and to permit weighing of a homogeneous liquid, weighed, allowed to cool overnight, then blended with a selected quantity of dimethyl sulfide. The samples of the crude/dimethyl sulfide blend were then heated to 60° C. and mixed to ensure homogeneous blending of the dimethyl sulfide in the samples. Absolute (dynamic) viscosity measurements of each of the samples were taken using rheometer and closed cup sensor assembly. Viscosity measurements of each of the samples of the West African waxy crude and the Middle Eastern asphaltic crude were taken at 20° C., 40° C., 60° C., 80° C., and then again at 20° C. after cooling from 80° C., where the second measurement at 20° C. is taken to measure the viscosity without the presence of waxes since wax formation occurs slowly enough to permit viscosity measurement at 20° C. without the presence of wax. Viscosity measurements of each of the samples of the Canadian asphaltenic crude were taken at 5° C., 10° C., 20° C., 40° C., 60° C., 80° C., The measured viscosities for each of the crudes are shown in Tables 3, 4, and 5 below.

Viscosity of Topped Canadian asphaltenic Crude (DMS 1.43 wt. %, 20° C.): 212525 mPa s
Viscosity of Topped Canadian asphaltenic Crude (DMS 1.43 wt. %, 40° C.): 14721 mPa s
Viscosity of Topped Canadian asphaltenic Crude (DMS 1.43 wt. %, 60° C.): 2209 mPa s
Viscosity of Topped Canadian asphaltenic Crude (DMS 1.43 wt. %, 80° C.): 538 mPa s
Viscosity of Topped Canadian asphaltenic Crude (DMS 2.07 wt. %, 20° C.): 134880 mPa s
Viscosity of Topped Canadian asphaltenic Crude (DMS 2.07 wt. %, 40° C.): 10523 mPa s
Viscosity of Topped Canadian asphaltenic Crude (DMS 2.07 wt. %, 60° C.): 1747 mPa s
Viscosity of Topped Canadian asphaltenic Crude (DMS 2.07 wt. %, 80° C.): 427 mPa s
Viscosity of Topped Canadian asphaltenic Crude (DMS 4.87 wt. %, 20° C.): 28720 mPa s
Viscosity of Topped Canadian asphaltenic Crude (DMS 4.87 wt. %, 40° C.): 3235 mPa s
Viscosity of Topped Canadian asphaltenic Crude (DMS 4.87 wt. %, 60° C.): 985 mPa s
Viscosity of Topped Canadian asphaltenic Crude (DMS 4.87 wt. %, 80° C.): 328 mPa s
Viscosity of Topped Canadian asphaltenic Crude (DMS 8.01 wt. %, 20° C.): 5799 mPa s
Viscosity of Topped Canadian asphaltenic Crude (DMS 8.01 wt. %, 40° C.): 982 mPa s
Viscosity of Topped Canadian asphaltenic Crude (DMS 8.01 wt. %, 60° C.): 275 mPa s
Viscosity of Topped Canadian asphaltenic Crude (DMS 8.01 wt. %, 80° C.): 106 mPa s
Viscosity of Topped Canadian asphaltenic Crude (DMS 9.80 wt. %, 20° C.): 2760 mPa s
Viscosity of Topped Canadian asphaltenic Crude (DMS 9.80 wt. %, 40° C.): 571 mPa s
Viscosity of Topped Canadian asphaltenic Crude (DMS 9.80 wt. %, 60° C.): 173 mPa s
Viscosity of Topped Canadian asphaltenic Crude (DMS 9.80 wt. %, 80° C.): 73 mPa s
Viscosity of Topped Canadian asphaltenic Crude (DMS 14.81 wt. %, 5° C.): 1794 mPa s
Viscosity of Topped Canadian asphaltenic Crude (DMS 14.81 wt. %, 10° C.): 1155 mPa s
Viscosity of Topped Canadian asphaltenic Crude (DMS 14.81 wt. %, 20° C.): 548 mPa s
Viscosity of Topped Canadian asphaltenic Crude (DMS 14.81 wt. %, 40° C.): 159 mPa s
Viscosity of Topped Canadian asphaltenic Crude (DMS 14.81 wt. %, 60° C.): 64 mPa s
Viscosity of Topped Canadian asphaltenic Crude (DMS 14.81 wt. %, 80° C.): 32 mPa s
Viscosity of Topped Canadian asphaltenic Crude (DMS 19.78 wt. %, 20° C.): 188 mPa s
Viscosity of Topped Canadian asphaltenic Crude (DMS 19.78 wt. %, 40° C.): 69 mPa s
Viscosity of Topped Canadian asphaltenic Crude (DMS 19.78 wt. %, 60° C.): 33 mPa s
Viscosity of Topped Canadian asphaltenic Crude (DMS 19.78 wt. %, 80° C.): 19 mPa s
Viscosity of Topped Canadian asphaltenic Crude (DMS 29.88 wt. %, 5° C.): 113 mPa s
Viscosity of Topped Canadian asphaltenic Crude (DMS 29.88 wt. %, 10° C.): 81 mPa s
Viscosity of Topped Canadian asphaltenic Crude (DMS 29.88 wt. %, 20° C.): 51 mPa s
Viscosity of Topped Canadian asphaltenic Crude (DMS 29.88 wt. %, 40° C.): 22 mPa s
Viscosity of Topped Canadian asphaltenic Crude (DMS 29.88 wt. %, 60° C.): 13 mPa s
Viscosity of Topped Canadian asphaltenic Crude (DMS 29.88 wt. %, 80° C.): 8 mPa s
Viscosity of Topped Canadian asphaltenic Crude (DMS 39.61 wt. %, 5° C.): 23 mPa s
Viscosity of Topped Canadian asphaltenic Crude (DMS 39.61 wt. %, 10° C.): 20 mPa s
Viscosity of Topped Canadian asphaltenic Crude (DMS 39.61 wt. %, 20° C.): 14 mPa s
Viscosity of Topped Canadian asphaltenic Crude (DMS 39.61 wt. %, 40° C.): 8 mPa s
Viscosity of Topped Canadian asphaltenic Crude (DMS 39.61 wt. %, 60° C.): 6 mPa s
Viscosity of Topped Canadian asphaltenic Crude (DMS 39.61 wt. %, 80° C.): 4 mPa s
Structure (SMILES): CSC [Dimethyl Sulfide, dimethyl sulfide]
